Test system: potato 5-Lipoxygenase enzyme
Experiment: Lipoxygenase Inhibitor Screening Assay Kit (Cayman), hydroperoxide formation, absorbance 492 nm
Type: biochemical
Details: positive control at 100 μM
Experimental: Extracts of cranberry fruit (E1) and cranberry leaf (E2) were prepared with food-grade ethanol, and then filtered and dried as described above. Research grade reagents were used for the rest of the assay preparations. Extracts were dissolved in dimethyl sulfoxide (‘DMSO’) to a final concentration of 50 mg/mL, and then diluted in appropriate buffer for each bioassay to working concentrations.
Cranberry fruit extract (E1) and cranberry leaf extract (E2) were tested for 5-LOX inhibition using the Lipoxygenase Inhibitor Screening Assay Kit (available from Cayman Chemical, Ann Arbor, Michigan, US) and potato 5-Lipoxygenase enzyme (available from Cayman Chemical). This kit measures hydroperoxides produced in the lipoxygenation reaction.
The extracts were dissolved in methanol to final working concentrations. 5-LOX enzyme, Chromagen, and Linoleic Acid solutions were prepared immediately before use. Nordihydroguaiaretic acid (‘NDGA’) was used as a positive control. 5-LOX enzyme was added to the test samples and controls and incubated for five minutes at room temperature to allow for enzyme/inhibitor interaction. Linoleic acid substrate was added to the plate to initiate the reaction, and the plate was then shaken at room temperature for 10 minutes. […] The absorbance was then read at 492 nm. Percent inhibition of the extract concentration was calculated in comparison to the uninhibited control wells. […]

In the case of `CC(Cc1ccc(O)c(O)c1)C(C)Cc1ccc(O)c(O)c1` (stereo not shown) [NDGA, Nordihydroguaiaretic acid], the 5-LOX enzyme inhibition is reported as 100%.
